Source: patent publication US20210330645A1, “ANTIBACTERIAL COMBINATIONS” (priority 2018, published 2021)
In brackets after ≈: the same amount, converted by molar mass. Several values for one entry are separate records, joined by “and”; a condition that tells them apart may be missing. Equal entries are not always repeated.

Experiments:
Escherichia coli O157 = experiment: Checkerboard growth inhibition assay, E. coli O157; type: cell-based; details: for FIC of the single component within the triple combination: Van+FZ+DOC at the lowest FICi point
Method: (§1) Each combination was performed in triplicate.
(§2) The interaction between two drugs was interpreted as synergistic if FICi was ≤0.5, indifferent if it was >0.5 and ≤4, and antagonistic if it was >4.
(§3) A growth inhibition assay was used where a series of concentrations of each antibacterial was applied combined with several concentrations of other two antibacterials (7 concentrations of Van, 8 of FZ and 9 of DOC). […] Starting from the highest concentrations, two-fold dilution series were assayed. E. coli cultures were seeded with ˜10^6 cells/mL and incubated overnight. Optical densities of each combination of concentrations were measured to assess growth and the inhibition relative to the no-antibiotic control were calculated. […] The synergistic interaction has been defined by the Fractional Inhibitory Concentration index (FICi); see the Definitions and Material and Methods sections. FICi represents the sum of the individual Fractional Inhibitory Concentrations (FIC). An FIC in turn is equal to the ratio of concentration that inhibits growth (>90%) in combination vs. alone. For pairwise combinations, the FICi below 0.5 (below 0.25 for each antibiotic) is considered synergistic; by extension for triple combination the FICi should be <0.75 (again below 0.25 for each antibiotic).

E. coli K12 = experiment: Checkerboard / dose-response growth inhibition assay, E. coli K12; type: cell-based, Escherichia coli; details: for FIC of the single component within the triple combination: Van+FZ+DOC at the lowest FICi point; for growth inhibition at the concentrations of the time-kill assay: FZ 1.25 μg/ml, alone or in combination
Method: E. coli was grown in 2×YT medium (BD Difco) at 37° C. with shaking at 200 rpm. For preparation of exponential phase cells, fresh overnight culture was 100-fold diluted and incubated to reach the OD600nm of about 0.1-0.2. This cell suspension was then diluted to the desirable concentration depending on specific purposes.
as §1, §2, §3

Klebsiella pneumoniae = experiment: Checkerboard growth inhibition assay, Klebsiella pneumoniae; type: cell-based; details: CM4 did not inhibit growth in the range used
Method: as §1, §2
Triple synergy is based on the pairwise synergies of the three antibacterials, FZ (a nitrofuran), DOC and Van. To start understanding the triple interaction, a series of experiments analysing pairwise combinations were carried out. […] In contrast, Klebsiella is susceptible to synergistic action of FZ (but not NF and NFZ) with DOC and is resistant to nitrofuran CM4.

E. coli [1] = experiment: Growth inhibition of E. coli by vancomycin (strain not specified)
[2] = test system: various Gram-negative bacteria; experiment: Inhibition of various Gram-negative bacteria by vancomycin alone and in combination; type: cell-based
Method: as §1

E. coli [3] = details: cited from earlier work
[4] = cited from earlier work
[5] = with FZ and DOC, at the lowest FICi point

Q: Which “FIC of the single component within the triple combination” value (“FIC” below) (Escherichia coli O157) does the source give for `C[C@H](CCC(=O)[O-])[C@H]1CC[C@H]2[C@@H]3CC[C@@H]4C[C@H](O)CC[C@]4(C)[C@H]3C[C@H](O)[C@]12C.[Na+]` [DOC, sodium; (4R)-4-[(3R,5R,8R,9S,10S,12S,13R,14S,17R)-3,12-dihydroxy-10,13-dimethyl-2,3,4,5,6,7,8,9,11,12,14,15,16,17-tetradecahydro-1H-cyclopenta[a]phenanthren-17-yl]pentanoate] here?
A: 0.03125

Q: What about the “FIC” value (E. coli K12) of the same molecule?
A: 0.0625

Q: And the “growth inhibition at the concentrations of the time-kill assay” value (E. coli K12; strain K1508, DOC 2,500 μg/ml)?
A: sub-inhibitory

Q: Which results are given for `O=C1OCCN1/N=C/c1ccc([N+](=O)[O-])o1` [FZ, 3-[(E)-(5-nitrofuran-2-yl)methylideneamino]-1,3-oxazolidin-2-one]?
A: FIC of the single component within the triple combination (Escherichia coli O157): 0.0625; growth inhibition at the concentrations of the time-kill assay (E. coli K12; strain BW25113, Van 125 μg/ml): sub-inhibitory; growth inhibition at the concentrations of the time-kill assay (E. coli K12; strain K1508, DOC 2,500 μg/ml): sub-inhibitory

Q: For `O=C(NN=Cc1ccc([N+](=O)[O-])o1)c1ccco1` [CM4, N′-[(5-nitrofuran-2-yl)methylidene]furan-2-carbohydrazide], which “concentration range in which growth was not inhibited (up to)” value (Klebsiella pneumoniae) is on record?
A: > 256 µg/mL

Q: For `CN[C@H](CC(C)C)C(=O)N[C@H]1C(=O)N[C@@H](CC(N)=O)C(=O)N[C@H]2C(=O)N[C@H]3C(=O)N[C@H](C(=O)N[C@H](C(=O)O)c4cc(O)cc(O)c4-c4cc3ccc4O)[C@H](O)c3ccc(c(Cl)c3)Oc3cc2cc(c3O[C@@H]2O[C@H](CO)[C@@H](O)[C@H](O)[C@H]2O[C@H]2C[C@](C)(N)[C@H](O)[C@H](C)O2)Oc2ccc(cc2Cl)[C@H]1O` [Van, vancomycin], which “concentration required for E. coli growth inhibition when used on its own” value (E. coli [1]) is on record?
A: > 250 µg/mL

Q: What about the “Van concentration in triple combination at several points in the graph” value (E. coli [1]; E. coli K12 and O157, with FZ and DOC) of the same molecule?
A: 16 µg/mL and 10 µg/mL

Q: What about the “concentration of vancomycin required to inhibit, before lowering (alone)” value ([2]; some variation between strains) of the same molecule?
A: about 500 μg/mL

Q: What about the “bactericidal concentration of vancomycin in the triple combination” value ([2]; with a nitrofuran and DOC) of the same molecule?
A: 15.6 µg/mL

Q: What about the “concentration of Van required to inhibit, used alone” value (Escherichia coli O157; 90% growth inhibition) of the same molecule?
A: 250 µg/mL

Q: And the “FIC” value (Escherichia coli O157)?
A: 0.03125

Q: And the “concentration of Van required to inhibit, in triple combination” value (Escherichia coli O157; [5])?
A: 16 µg/mL

Q: What about the “MIC when used on its own” value (E. coli [3]) of the same molecule?
A: 250 µg/mL (≈ 173 µM)

Q: And the known nephrotoxic concentrations ([4]; depending on the mode and length of treatment)?
A: 30 µg/mL and 20 µg/mL

Q: And the “concentration considered below nephrotoxic level (sub-toxic)” value ([4]; recommended therapeutic concentration, 6-day treatment)?
A: below 20 μg/mL

Q: What about the “concentration of Van required to inhibit, used alone” value (E. coli K12; 90% growth inhibition) of the same molecule?
A: 500 µg/mL

Q: What about the “FIC” value (E. coli K12) of the same molecule?
A: 0.03125

Q: What about the “growth inhibition at the concentrations of the time-kill assay” value (E. coli K12; strain BW25113, Van 125 μg/ml) of the same molecule?
A: sub-inhibitory

Q: And the “concentration of Van required to inhibit, in triple combination” value (E. coli K12; [5])?
A: 20 µg/mL
